Measured values as given in PubChem BioAssay (NCI).
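Protocol summary: plate cells (96-well), add compound at 5 concentrations, incubate 48 h, interpolate endpoints linearly. GI50 marks 50% less growth. The concentration for full growth arrest is given as TGI.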

What was measured:
Assay in all cases: NCI tumour cell line growth inhibition, 48 h
MDA-MB-435 = system: MDA-MB-435
HCT-116 colon = system: HCT-116 colon
SF-295 CNS = system: SF-295 CNS
SNB-19 CNS = system: SNB-19 CNS
CAKI-1 renal = system: CAKI-1 renal
MOLT-4 leukemia = system: MOLT-4 leukemia
K-562 leukemia = system: K-562 leukemia
HCT-15 colon = system: HCT-15 colon
ACHN renal = system: ACHN renal
OVCAR-4 ovarian = system: OVCAR-4 ovarian
SK-MEL-5 melanoma = system: SK-MEL-5 melanoma
EKVX NSCLC = system: EKVX NSCLC
A549 NSCLC = system: A549 NSCLC
U251 CNS = system: U251 CNS
SF-268 CNS = system: SF-268 CNS
LOX IMVI melanoma = system: LOX IMVI melanoma
RPMI-8226 leukemia = system: RPMI-8226 leukemia
M14 melanoma = system: M14 melanoma
PC-3 prostate = system: PC-3 prostate
DU-145 prostate = system: DU-145 prostate
A498 renal = system: A498 renal
SN12C renal = system: SN12C renal
HS 578T breast = system: HS 578T breast
SK-MEL-2 melanoma = system: SK-MEL-2 melanoma
HCC-2998 colon = system: HCC-2998 colon
NCI-H522 lung = system: NCI-H522 lung
SK-MEL-28 melanoma = system: SK-MEL-28 melanoma
786-0 renal = system: 786-0 renal
OVCAR-5 ovarian = system: OVCAR-5 ovarian
SR leukemia = system: SR leukemia
UACC-257 melanoma = system: UACC-257 melanoma
TK-10 renal = system: TK-10 renal
MDA-MB-231 breast = system: MDA-MB-231 breast
CCRF-CEM leukemia = system: CCRF-CEM leukemia
SK-OV-3 ovarian = system: SK-OV-3 ovarian
UACC-62 melanoma = system: UACC-62 melanoma
SF-539 CNS = system: SF-539 CNS
MCF7 breast = system: MCF7 breast
HT29 colon = system: HT29 colon
RXF 393 renal = system: RXF 393 renal
NCI/ADR-RES ovarian = system: NCI/ADR-RES ovarian
HL-60(TB) leukemia = system: HL-60(TB) leukemia
HOP-62 NSCLC = system: HOP-62 NSCLC
IGROV1 ovarian = system: IGROV1 ovarian
OVCAR-3 ovarian = system: OVCAR-3 ovarian
UO-31 renal = system: UO-31 renal
KM12 colon = system: KM12 colon
NCI-H23 lung = system: NCI-H23 lung
OVCAR-8 ovarian = system: OVCAR-8 ovarian
BT-549 breast = system: BT-549 breast
NCI-H226 lung = system: NCI-H226 lung
HOP-92 NSCLC = system: HOP-92 NSCLC
COLO 205 colon = system: COLO 205 colon
SW-620 colon = system: SW-620 colon
T-47D breast = system: T-47D breast
SNB-75 CNS = system: SNB-75 CNS
NCI-H460 lung = system: NCI-H460 lung
MALME-3M melanoma = system: MALME-3M melanoma

With `Cc1cccc(/C=C/C(=O)Nc2ncc(Cc3cccc(C)c3)s2)c1` the GI50 (MDA-MB-435) was 0.303 µM, the TGI (MDA-MB-435) was 1.14 µM and the GI50 (HCT-116 colon) was 1.1 µM. The TGI (HCT-116 colon) was > 100 µM, the GI50 (SF-295 CNS) was 0.329 µM and the TGI (SF-295 CNS) was 2.46 µM. For the same compound, the GI50 (SNB-19 CNS) was 1.4 µM, the TGI (SNB-19 CNS) was > 100 µM and the GI50 (CAKI-1 renal) was 0.518 µM. For the same compound, the TGI (CAKI-1 renal) was > 100 µM, the GI50 (MOLT-4 leukemia) was 0.71 µM and the TGI (MOLT-4 leukemia) was > 100 µM. The GI50 (K-562 leukemia) was 0.117 µM, the TGI (K-562 leukemia) was > 100 µM and the GI50 (HCT-15 colon) was 0.585 µM. For the same compound, the TGI (HCT-15 colon) was > 100 µM, the GI50 (ACHN renal) was 1.06 µM and the TGI (ACHN renal) was > 100 µM. For the same compound, the GI50 (OVCAR-4 ovarian) was 1.39 µM, the TGI (OVCAR-4 ovarian) was > 100 µM and the GI50 (SK-MEL-5 melanoma) was 1.23 µM. For the same compound, the TGI (SK-MEL-5 melanoma) was > 81.1 µM, the GI50 (EKVX NSCLC) was 1.22 µM and the TGI (EKVX NSCLC) was > 100 µM. The GI50 (A549 NSCLC) was 1.02 µM, the TGI (A549 NSCLC) was > 100 µM and the GI50 (U251 CNS) was 1.11 µM. For the same compound, the TGI (U251 CNS) was > 100 µM, the GI50 (SF-268 CNS) was 2.54 µM and the TGI (SF-268 CNS) was > 100 µM. For the same compound, the GI50 (LOX IMVI melanoma) was 0.841 µM, the TGI (LOX IMVI melanoma) was > 100 µM and the GI50 (RPMI-8226 leukemia) was 1.14 µM. For the same compound, the TGI (RPMI-8226 leukemia) was > 100 µM, the GI50 (M14 melanoma) was 0.568 µM and the TGI (M14 melanoma) was 1.89 µM. For the same compound, the GI50 (PC-3 prostate) was 0.875 µM, the TGI (PC-3 prostate) was > 100 µM and the GI50 (DU-145 prostate) was 0.876 µM. For the same compound, the TGI (DU-145 prostate) was > 100 µM, the GI50 (A498 renal) was > 27.7 µM and the TGI (A498 renal) was > 100 µM. For the same compound, the GI50 (SN12C renal) was 1.68 µM, the TGI (SN12C renal) was > 100 µM and the GI50 (HS 578T breast) was 1.04 µM. For the same compound, the TGI (HS 578T breast) was > 100 µM, the GI50 (SK-MEL-2 melanoma) was 0.627 µM and the TGI (SK-MEL-2 melanoma) was 4.75 µM. The GI50 (HCC-2998 colon) was 1.68 µM, the TGI (HCC-2998 colon) was > 100 µM and the GI50 (NCI-H522 lung) was 0.599 µM. The TGI (NCI-H522 lung) was 2.08 µM, the GI50 (SK-MEL-28 melanoma) was 1.93 µM and the TGI (SK-MEL-28 melanoma) was > 100 µM. The GI50 (786-0 renal) was 1.19 µM, the TGI (786-0 renal) was > 100 µM and the GI50 (OVCAR-5 ovarian) was 1.44 µM. For the same compound, the TGI (OVCAR-5 ovarian) was > 100 µM, the GI50 (SR leukemia) was 0.179 µM and the TGI (SR leukemia) was > 100 µM. For the same compound, the GI50 (UACC-257 melanoma) was 1.59 µM, the TGI (UACC-257 melanoma) was > 100 µM and the GI50 (TK-10 renal) was > 25.6 µM. The TGI (TK-10 renal) was > 100 µM, the GI50 (MDA-MB-231 breast) was 2.92 µM and the TGI (MDA-MB-231 breast) was > 100 µM. For the same compound, the GI50 (CCRF-CEM leukemia) was 0.884 µM, the TGI (CCRF-CEM leukemia) was > 100 µM and the GI50 (SK-OV-3 ovarian) was 1.67 µM. For the same compound, the TGI (SK-OV-3 ovarian) was > 100 µM, the GI50 (UACC-62 melanoma) was 0.144 µM and the TGI (UACC-62 melanoma) was > 100 µM. For the same compound, the GI50 (SF-539 CNS) was 0.863 µM, the TGI (SF-539 CNS) was > 32.5 µM and the GI50 (MCF7 breast) was 0.82 µM. The TGI (MCF7 breast) was > 100 µM, the GI50 (HT29 colon) was 0.739 µM and the TGI (HT29 colon) was 2.58 µM. For the same compound, the GI50 (RXF 393 renal) was 0.91 µM, the TGI (RXF 393 renal) was 5.95 µM and the GI50 (NCI/ADR-RES ovarian) was 0.869 µM. The TGI (NCI/ADR-RES ovarian) was > 100 µM, the GI50 (HL-60(TB) leukemia) was 0.579 µM and the TGI (HL-60(TB) leukemia) was 1.97 µM. The GI50 (HOP-62 NSCLC) was 0.633 µM, the TGI (HOP-62 NSCLC) was > 100 µM and the GI50 (IGROV1 ovarian) was 1.67 µM. The TGI (IGROV1 ovarian) was > 100 µM, the GI50 (OVCAR-3 ovarian) was 1.05 µM and the TGI (OVCAR-3 ovarian) was 8.55 µM. For the same compound, the GI50 (UO-31 renal) was 0.618 µM, the TGI (UO-31 renal) was > 100 µM and the GI50 (KM12 colon) was 0.339 µM. The TGI (KM12 colon) was > 75 µM, the GI50 (NCI-H23 lung) was 6.62 µM and the TGI (NCI-H23 lung) was > 100 µM. For the same compound, the GI50 (OVCAR-8 ovarian) was 1.36 µM, the TGI (OVCAR-8 ovarian) was > 100 µM and the GI50 (BT-549 breast) was 1.29 µM. The TGI (BT-549 breast) was > 100 µM, the GI50 (NCI-H226 lung) was 1.28 µM and the TGI (NCI-H226 lung) was > 100 µM. The GI50 (HOP-92 NSCLC) was 1.25 µM, the TGI (HOP-92 NSCLC) was > 100 µM and the GI50 (COLO 205 colon) was 0.766 µM. For the same compound, the TGI (COLO 205 colon) was 3 µM, the GI50 (SW-620 colon) was 1.13 µM and the TGI (SW-620 colon) was > 100 µM. The GI50 (T-47D breast) was 0.575 µM, the TGI (T-47D breast) was > 100 µM and the GI50 (SNB-75 CNS) was 0.903 µM. For the same compound, the TGI (SNB-75 CNS) was > 20.5 µM, the GI50 (NCI-H460 lung) was 0.545 µM and the TGI (NCI-H460 lung) was > 100 µM. The GI50 (MALME-3M melanoma) was 1.3 µM and the TGI (MALME-3M melanoma) was > 100 µM.
